From patent publication US20250170248A1, “SMARCA DEGRADERS AND USES THEREOF” (Kymera Therapeutics, Inc., priority 2021, published 2025)

What was measured:
Type in all cases: cell-based
SMARCA2 [1] = molecular target: T1, SMARCA2 (Homo sapiens, UniProt P51531); assay: MSD SMARCA2 degradation in A549 cell line; settings: for Dmax: A549, A549 cells; for Dmax / DC50: 24 h; for DC50: read-out: SMARCA2 MSD A549 degradation 24 h: Average external-Abs DC50
Procedure, shortened: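 SMARCA2 protein remaining after 24 h exposure of A549 cells (top concentration 1000 nM, 3-fold dilutions) was measured by MSD electrochemiluminescence immunoassay of cell lysates. Results are given as binned DC50 and maximal degradation (Dmax) codes.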

SMARCA4 = molecular target: T2, SMARCA4 (Homo sapiens, UniProt P51532); assay: SMARCA4 Western blot degradation in MV4-11 cells; settings: for Dmax: MV4-11, MV4-11 cells, read-out: SMARCA4 MSD MV411 degradation 24 h: average Dmax %; for Dmax / DC50: 24 h; for DC50: read-out: SMARCA4 MSD MV411 degradation 24 h: Mean external-Abs DC50
T2 construct: SMARCA2/SMARCA4 protein degradation selectivity in MV4-11 cells; endogenous in cells; host or cells: MV4-11
Procedure, shortened: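 Protein levels quantified by LI-COR Western blot (beta-actin loading control) in RIPA lysates of MV4-11 cells after 24 h compound exposure. Degradation reported as DC50, Dmax % at 24 h and SMARCA2 vs SMARCA4 selectivity, each binned into letter codes.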

SMARCA2 [2] = molecular target: T1, SMARCA2; assay: SMARCA2 Western blot degradation in MV4-11 cells; set-up: SMARCA2/SMARCA4 protein degradation selectivity in MV4-11 cells; endogenous in cells; host or cells: MV4-11; settings: for Dmax: MV4-11, MV4-11 cells, read-out: SMARCA2 MSD MV411 degradation 24 h: average Dmax %; for DC50: read-out: SMARCA2 MSD MV411 degradation 24 h: Mean external-Abs DC50; for Selectivity in MV411: SMARCA2/4 selectivity

T1 sequence (P51531 whole entry): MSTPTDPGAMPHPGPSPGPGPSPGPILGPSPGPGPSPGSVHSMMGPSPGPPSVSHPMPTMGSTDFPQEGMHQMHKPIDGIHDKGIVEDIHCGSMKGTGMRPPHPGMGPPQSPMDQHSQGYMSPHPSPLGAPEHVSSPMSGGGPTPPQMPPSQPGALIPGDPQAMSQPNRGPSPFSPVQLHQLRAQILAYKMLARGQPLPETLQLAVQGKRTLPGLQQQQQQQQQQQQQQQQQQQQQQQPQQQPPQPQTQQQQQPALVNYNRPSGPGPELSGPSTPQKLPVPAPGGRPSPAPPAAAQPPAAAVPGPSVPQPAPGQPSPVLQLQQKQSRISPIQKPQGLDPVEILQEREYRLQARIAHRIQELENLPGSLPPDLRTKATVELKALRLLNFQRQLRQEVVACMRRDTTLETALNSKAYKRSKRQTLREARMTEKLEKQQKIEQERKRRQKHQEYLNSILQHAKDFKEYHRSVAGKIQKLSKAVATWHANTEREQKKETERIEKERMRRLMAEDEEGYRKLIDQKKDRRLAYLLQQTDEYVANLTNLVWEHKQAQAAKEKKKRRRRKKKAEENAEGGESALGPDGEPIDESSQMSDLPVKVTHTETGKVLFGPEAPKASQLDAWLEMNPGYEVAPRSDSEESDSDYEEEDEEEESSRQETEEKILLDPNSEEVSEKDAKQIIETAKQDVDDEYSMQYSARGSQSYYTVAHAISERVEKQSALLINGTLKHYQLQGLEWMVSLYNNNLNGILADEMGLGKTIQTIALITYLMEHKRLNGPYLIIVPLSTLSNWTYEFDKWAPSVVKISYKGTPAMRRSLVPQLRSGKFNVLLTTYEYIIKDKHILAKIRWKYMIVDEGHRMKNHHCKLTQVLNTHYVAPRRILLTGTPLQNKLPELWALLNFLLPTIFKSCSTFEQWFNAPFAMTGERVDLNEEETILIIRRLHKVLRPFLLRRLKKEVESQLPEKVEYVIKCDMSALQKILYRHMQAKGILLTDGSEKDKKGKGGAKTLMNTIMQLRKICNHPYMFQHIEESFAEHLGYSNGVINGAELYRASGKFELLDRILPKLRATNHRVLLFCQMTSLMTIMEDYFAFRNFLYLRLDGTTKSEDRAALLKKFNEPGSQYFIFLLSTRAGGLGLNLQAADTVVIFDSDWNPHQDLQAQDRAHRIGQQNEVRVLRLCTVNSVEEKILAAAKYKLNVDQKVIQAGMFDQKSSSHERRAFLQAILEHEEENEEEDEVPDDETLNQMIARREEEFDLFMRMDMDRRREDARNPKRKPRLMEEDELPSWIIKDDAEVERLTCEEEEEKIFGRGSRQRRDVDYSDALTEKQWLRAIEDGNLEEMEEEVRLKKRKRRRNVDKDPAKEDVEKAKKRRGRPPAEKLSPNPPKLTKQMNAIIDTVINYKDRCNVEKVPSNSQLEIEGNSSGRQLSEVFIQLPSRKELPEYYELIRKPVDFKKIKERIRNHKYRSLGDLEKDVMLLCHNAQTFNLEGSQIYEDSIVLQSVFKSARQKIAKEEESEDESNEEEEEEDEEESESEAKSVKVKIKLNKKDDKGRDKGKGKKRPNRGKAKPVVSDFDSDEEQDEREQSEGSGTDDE
T2 sequence (P51532 whole entry): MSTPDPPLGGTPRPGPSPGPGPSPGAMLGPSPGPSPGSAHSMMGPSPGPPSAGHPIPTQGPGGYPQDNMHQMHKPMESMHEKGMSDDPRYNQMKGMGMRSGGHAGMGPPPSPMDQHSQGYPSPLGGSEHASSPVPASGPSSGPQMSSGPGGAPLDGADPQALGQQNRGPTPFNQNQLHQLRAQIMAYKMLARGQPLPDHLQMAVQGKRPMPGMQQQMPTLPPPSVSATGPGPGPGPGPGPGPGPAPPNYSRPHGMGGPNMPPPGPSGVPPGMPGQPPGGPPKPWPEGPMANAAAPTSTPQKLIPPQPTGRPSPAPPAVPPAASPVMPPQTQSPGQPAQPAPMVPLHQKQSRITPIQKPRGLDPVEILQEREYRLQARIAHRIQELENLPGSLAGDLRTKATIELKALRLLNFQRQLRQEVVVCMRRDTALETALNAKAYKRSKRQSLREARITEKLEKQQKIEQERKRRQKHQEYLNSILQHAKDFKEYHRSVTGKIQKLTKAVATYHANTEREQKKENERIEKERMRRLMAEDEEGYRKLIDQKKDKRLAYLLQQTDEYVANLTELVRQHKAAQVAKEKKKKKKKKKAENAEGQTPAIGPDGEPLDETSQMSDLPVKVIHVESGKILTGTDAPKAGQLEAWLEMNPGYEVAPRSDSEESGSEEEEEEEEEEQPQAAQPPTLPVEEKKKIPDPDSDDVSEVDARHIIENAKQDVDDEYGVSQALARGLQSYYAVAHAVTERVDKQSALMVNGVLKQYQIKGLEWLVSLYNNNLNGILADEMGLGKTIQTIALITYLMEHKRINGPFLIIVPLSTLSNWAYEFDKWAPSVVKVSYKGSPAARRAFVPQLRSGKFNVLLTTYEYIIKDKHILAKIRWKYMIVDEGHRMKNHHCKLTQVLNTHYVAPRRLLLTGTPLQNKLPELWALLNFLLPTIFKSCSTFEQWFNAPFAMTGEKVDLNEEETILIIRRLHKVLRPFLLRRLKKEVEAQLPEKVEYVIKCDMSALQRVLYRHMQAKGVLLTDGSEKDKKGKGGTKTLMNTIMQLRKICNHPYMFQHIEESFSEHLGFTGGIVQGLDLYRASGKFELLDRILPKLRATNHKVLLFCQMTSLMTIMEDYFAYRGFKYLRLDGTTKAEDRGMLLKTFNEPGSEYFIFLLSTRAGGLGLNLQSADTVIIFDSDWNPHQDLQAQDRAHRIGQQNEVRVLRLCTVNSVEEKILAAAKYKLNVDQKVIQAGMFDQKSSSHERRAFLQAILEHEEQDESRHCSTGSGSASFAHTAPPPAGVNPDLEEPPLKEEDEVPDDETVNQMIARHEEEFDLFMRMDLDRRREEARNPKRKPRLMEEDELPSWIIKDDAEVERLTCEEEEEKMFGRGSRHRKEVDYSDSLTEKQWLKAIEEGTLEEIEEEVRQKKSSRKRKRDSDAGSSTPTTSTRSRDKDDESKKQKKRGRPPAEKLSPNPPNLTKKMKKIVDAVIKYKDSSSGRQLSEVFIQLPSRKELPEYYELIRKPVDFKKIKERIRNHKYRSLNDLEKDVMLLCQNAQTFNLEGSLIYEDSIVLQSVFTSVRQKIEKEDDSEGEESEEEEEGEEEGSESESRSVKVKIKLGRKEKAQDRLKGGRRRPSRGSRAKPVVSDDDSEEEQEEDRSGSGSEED

SMILES	Dmax (SMARCA2 [1])	DC50 (SMARCA2 [1]; A549 cells)	Dmax (SMARCA4)	DC50 (SMARCA4; MV4-11 cells)	Dmax (SMARCA2 [2]; 24 h)	DC50 (SMARCA2 [2]; MV4-11 cells, 24 h)	Selectivity in MV411 (SMARCA2 [2]; MV4-11 cells)	SMARCA2 MSD A549 degradation 24 h: Average Dmax % (SMARCA2 [1]; A549 cells)	SMARCA4 MSD MV411 degradation 24 h: average Dmax % (SMARCA4; MV4-11 cells)	SMARCA2 MSD MV411 degradation 24 h: average Dmax % (SMARCA2 [2]; MV4-11 cells, 24 h)
C#Cc1cc(O)c(CNC(=O)[C@@H]2C[C@@H](O)CN2C(=O)[C@@H](NC(=O)N2CC3(CC(N4CCC(c5cnc(N6CCc7[nH]c8nnc(-c9ccccc9O)cc8c7[C@H]6C)nc5)CC4)C3)C2)C(C)(C)C)c(Cl)c1 [I-281]	< 50%	> 100 nM	< 50%	> 100 nM	< 50%	> 100 nM	D (D (<10 fold))	–	–	–
C#Cc1ccc(CNC(=O)[C@@H]2C[C@@H](O)CN2C(=O)[C@@H](NC(=O)N2CC3(CC(N4CCC(N5CCC(N6CCc7[nH]c8nnc(-c9ccccc9O)cc8c7[C@H]6C)C5)CC4)C3)C2)C(C)(C)C)cc1 (mixture of isomers) [I-188]	> 90%	> 100 nM	< 50%	> 100 nM	50 to 70%	10 to 100 nM	C (C (10-100 fold))	–	–	–
Cc1ncsc1-c1ccc(CNC(=O)[C@@H]2C[C@@H](O)CN2C(=O)[C@@H](NC(=O)[C@H]2CC3(C2)C[C@H](N2CCC(c4ccnc(N5CCN6c7cc(-c8ccccc8O)nnc7NC[C@@H]6C5)n4)CC2)C3)C(C)(C)C)cc1 (single isomer, unassigned) [I-4]	–	> 100 nM	–	> 100 nM	–	1 to 10 nM	B (B (>100-500 fold))	C (C (50-70% degradation))	D (D (<50% degradation))	B (B (>70-90% degradation))
C#Cc1ccc(CNC(=O)[C@@H]2C[C@@H](O)CN2C(=O)[C@@H](NC(=O)N2CC3(CC(N4CCC5(CCN(c6cnc(N7CCc8[nH]c9nnc(-c%10ccccc%10O)cc9c8C7C)nc6)C5)C4)C3)C2)C(C)(C)C)cc1 (stereo partly shown) [I-173]	> 90%	> 100 nM	50 to 70%	> 100 nM	50 to 70%	10 to 100 nM	C (C (10-100 fold))	–	–	–
C#Cc1ccc(CNC(=O)[C@@H]2C[C@@H](O)CN2C(=O)[C@@H](NC(=O)N2CCN(CC3CCN([C@H]4CC[C@H](N5CCN6c7cc(-c8ccccc8O)nnc7NC[C@H]6C5)CC4)CC3)CC2)C(C)(C)C)cc1 [I-217]	70 to 90%	> 100 nM	< 50%	> 100 nM	50 to 70%	10 to 100 nM	C (C (10-100 fold))	–	–	–
Cc1ncsc1-c1ccc(CNC(=O)[C@@H]2C[C@@H](O)CN2C(=O)[C@@H](NC(=O)C2(F)CC2)C(C)(C)C)c(O[C@H]2CC[C@@H](N3CCC(c4cnc(N5CCc6[nH]c7nnc(-c8ccccc8O)cc7c6[C@@H]5C)nc4)CC3)CC2)c1 (single isomer, unassigned) [I-34]	70 to 90%	> 100 nM	50 to 70%	> 100 nM	< 50%	10 to 100 nM	B (B (>100-500 fold))	–	–	–
C#Cc1ccc(CNC(=O)[C@@H]2C[C@@H](O)CN2C(=O)[C@@H](NC(=O)C2CC3(C2)CN(c2cnc(N4CCC(N5CCN6c7cc(-c8ccccc8O)nnc7NC[C@H]6C5)CC4)cn2)C3)C(C)(C)C)cc1 [I-320]	> 90%	< 10 nM	> 90%	10 to 100 nM	> 90%	1 to 10 nM	C (C (10-100 fold))	–	–	–
C#Cc1ccc(CNC(=O)[C@@H]2C[C@@H](O)CN2C(=O)[C@@H](NC(=O)N2CCN(C3CC4(CCN(c5cnc(N6CCN7c8cc(-c9ccccc9O)nnc8NC[C@H]7C6)nc5)CC4)C3)CC2)C(C)(C)C)cc1 [I-284]	> 90%	10 to 50 nM	50 to 70%	> 100 nM	> 90%	1 to 10 nM	C (C (10-100 fold))	–	–	–
C#Cc1ccc(CNC(=O)[C@@H]2C[C@@H](O)CN2C(=O)[C@@H](NC(=O)N2CC3(CC(N4CCC(c5cnc(N6CCc7[nH]c8nnc(-c9ccccc9O)cc8c7[C@H]6C)nc5)CC4)C3)C2)C(C)(C)C)cc1F [I-310]	> 90%	10 to 50 nM	> 90%	> 100 nM	> 90%	1 to 10 nM	C (C (10-100 fold))	–	–	–
C#Cc1ccc(CNC(=O)[C@@H]2C[C@@H](O)CN2C(=O)[C@@H](NC(=O)N2CC3(CC(N4CCC(N5CCC(N6CCc7[nH]c8nnc(-c9ccccc9O)cc8c7[C@@H]6C)CC5)CC4)C3)C2)C(C)(C)C)cc1 [I-180]	> 90%	> 100 nM	> 90%	> 100 nM	70 to 90%	10 to 100 nM	D (D (<10 fold))	–	–	–
Cc1ncsc1-c1ccc(CNC(=O)[C@@H]2C[C@@H](O)CN2C(=O)[C@@H](NC(=O)[C@H]2CC3(C2)C[C@H](N2CCN(c4cnc(N5CCc6[nH]c7nnc(-c8ccccc8O)cc7c6[C@H]5C)nc4)CC2)C3)C(C)(C)C)cc1 (single isomer, unassigned) [I-76]	> 90%	10 to 50 nM	50 to 70%	> 100 nM	70 to 90%	1 to 10 nM	C (C (10-100 fold))	–	–	–
C#Cc1cc(Cl)c(CNC(=O)[C@@H]2C[C@@H](O)CN2C(=O)[C@@H](NC(=O)[C@H]2CC3(C2)C[C@H](N2CCC(N4CCC(N5CCN6c7cc(-c8ccccc8O)nnc7NC[C@H]6C5)CC4)CC2)C3)C(C)(C)C)c(OC)c1 (single isomer, unassigned) [I-328]	< 50%	> 100 nM	< 50%	> 100 nM	< 50%	> 100 nM	D (D (<10 fold))	–	–	–
C#Cc1ccc(CNC(=O)[C@@H]2C[C@@H](O)CN2C(=O)[C@@H](NC(=O)N2CCC(C(=O)N3CCC(N4CCC(N5CCc6[nH]c7nnc(-c8ccccc8O)cc7c6[C@H]5C)CC4)CC3)CC2)C(C)(C)C)cc1 [I-192]	70 to 90%	> 100 nM	< 50%	> 100 nM	< 50%	> 100 nM	C (C (10-100 fold))	–	–	–
C#Cc1ccc([C@H](C)NC(=O)[C@@H]2C[C@@H](O)CN2C(=O)[C@@H](c2cc(OCCN3CCC(N4CCC(N5CCC(CN6CCN7c8cc(-c9ccccc9O)nnc8NC[C@H]7C6)CC5)CC4)CC3)no2)C(C)C)cc1 (single isomer, unassigned) [I-334]	50 to 70%	> 100 nM	< 50%	> 100 nM	< 50%	> 100 nM	D (D (<10 fold))	–	–	–
C#Cc1ccc(CNC(=O)[C@@H]2C[C@@H](O)CN2C(=O)[C@@H](NC(=O)[C@H]2CC3(C2)C[C@H](N2CCN(C(=O)CN4CCN5c6cc(-c7ccccc7O)nnc6NC[C@H]5C4)CC2)C3)C(C)(C)C)cc1 (single isomer, unassigned) [I-239]	> 90%	> 100 nM	> 90%	10 to 100 nM	> 90%	1 to 10 nM	D (D (<10 fold))	–	–	–
Cc1ncsc1-c1ccc([C@H](C)NC(=O)[C@@H]2C[C@@H](O)CN2C(=O)[C@@H](NC(=O)Cc2ccc(CCCC(=O)N3CCN4c5cc(-c6ccccc6O)nnc5NC[C@H]4C3)cc2)C(C)(C)C)cc1 (single isomer, unassigned) [I-83]	70 to 90%	50 to 100 nM	> 90%	10 to 100 nM	> 90%	1 to 10 nM	C (C (10-100 fold))	–	–	–
